# Assay results reported in US11458152B2, “Use of agarobiose or agarooligosaccharide having anticariogenic activity” (Korea University Research and Business Foundation, priority 2016, dated 2022).
# What was measured:
# [1] = system: Streptococcus mutans; experiment: Acid production of Streptococcus mutans under mixed carbon source condition, extracellular glucose and lactic acid by HPLC (Example 8); assay type: cell-based, Streptococcus mutans ATCC 25175
# Procedure: (§1) A strain used in the present experiment was Streptococcus mutans ATCC 25175. Streptococcus mutans ATCC 25175 was pre-cultured in a brain-heart infusion (BHI) medium for 8 hours, and was washed twice with a 2 mM potassium phosphate buffer, and then main-cultured in a minimal medium prepared with reference to a previously reported document (Fujiwara et al (1978) Arch Oral Biol. 23, 601-602) at 37° C. The minimal medium contains, in a 50 mM Tris-HCl buffer (pH 7.4), 2 g/L of L-glutamic acid, 0.2 g/L of cysteine hydrochloride, 0.9 g/L of L-leucine, 1 g/L of ammonium chloride, 3.5 g/L of potassium hydrogen phosphate, 1.5 g/L of potassium dihydrogen phosphate, 4.2 g/L of sodium hydrogen carbonate, 1.2 g/L of magnesium sulfate heptahydrate, 0.02 g/L of manganese chloride tetrahydrate, 0.02 g/L of iron sulfate heptahydrate, 0.6 g/L of sodium pyruvate, 1 mg/L of riboflavin, 0.5 mg/L of thiamine hydrochloride, 0.1 mg/L of biotin, 1 mg/L of nicotinic acid, 0.1 mg/L of p-aminobenzoic acid, 0.5 mg/L of calcium pantothenate, and 1 mg/L of pyridoxine hydrochloride.
# To confirm an effect of agarobiose, agarooligosaccharides, xylitol, or neoagarobiose on acid production of Streptococcus mutans, Streptococcus mutans were cultured, using the method of Example 5, in 200 μl of a minimal medium containing 10 g/L of glucose and 0 g/L, 2.5 g/L, 5 g/L, 10 g/L, or 20 g/L of agarobiose, agarooligosaccharides, or neoagarobiose, or 0 g/L, 5 g/L, 10 g/L, or 20 g/L of xylitol in a 96-well plate. After 14 hours, concentrations of extracellular glucose and produced lactic acid were measured by HPLC. A column used for HPLC analysis was Aminex HPX-87H. 0.01 N of sulfuric acid as a mobile phase was flowed at a rate of 0.5 mL/min and 65° C.
# [2] = system: Streptococcus mutans; experiment: Growth of Streptococcus mutans under single carbon source condition (Example 6); assay type: cell-based, Streptococcus mutans ATCC 25175; details: 10 g/L as single carbon source in minimal medium, cultured 14 hours
# Procedure: as §1, with “hydrochloride. To verify an effect of inhibiting the growth of Streptococcus mutans under a single carbon source condition, Streptococcus mutans were cultured in a minimal medium containing each of 10 g/L of agarobiose, agarooligosaccharides, glucose, xylitol, and neoagarobiose and a carbon source-free minimal medium. They were main-cultured using the method of Example 5 for 14 hours, and a degree of the cell growth was measured by measuring the absorbance of a culture solution at a wavelength of 600 nm every two hours.” for “hydrochloride.”
# [3] = system: Streptococcus mutans; experiment: Growth inhibition of Streptococcus mutans under mixed carbon source condition, absorbance at 600 nm (Example 7); assay type: cell-based, Streptococcus mutans ATCC 25175
# Procedure: as §1, with “hydrochloride. Streptococcus mutans was cultured, using the method of Example 5, in 200 μl of a minimal medium containing 10 g/L of glucose and agarobiose, agarooligosaccharides, xylitol, or neoagarobiose at various concentrations in a 96-well plate, and growth inhibitory effects thereof were observed by measuring absorbance at a wavelength of 600 nm over time. The treated concentrations of agarobiose, agarooligosaccharides, xylitol, and neoagarobiose were between 0 g/L and 20 g/L.” for “hydrochloride.”
# [4] = system: Streptococcus mutans; details: literature (Trahan L et al); cited from earlier work
# [5] = 2.5 g/L in 10 g/L glucose, 14 hours
# [6] = 10 g/L in 10 g/L glucose, 14 hours
# [7] = 20 g/L in 10 g/L glucose, 14 hours
# [8] = mixed carbon source, 10 g/L glucose
compound,measurement,setting,value
OC[C@H]1O[C@@H](O[C@H]2[C@H]3OC[C@@H]2OC(O)[C@H]3O)[C@H](O)[C@@H](O)[C@H]1O (mixture of isomers) [agarobiose],concentration of consumed glucose,[1]; [5],6.78 g/L
same,concentration of produced lactic acid,[1]; [5],5.65 g/L
same,decrease of consumed glucose compared to 0 g/L,[1]; [5],19%
same,decrease of produced lactic acid compared to 0 g/L,[1]; [5],32%
same,degree of inhibition of acid production compared with 10 g/L of xylitol,[1]; 5 g/L in 10 g/L glucose,greater
same,amount of consumed glucose,[1]; [6],4.05 g/L
same,amount of produced lactic acid,[1]; [6],3.25 g/L
same,decrease of consumed glucose compared to 0 g/L,[1]; [6],51.5%
same,decrease of produced lactic acid compared to 0 g/L,[1]; [6],60%
same,decrease of consumed glucose compared to 0 g/L,[1]; [7],58.76%
same,decrease of produced lactic acid compared to 0 g/L,[1]; [7],68%
same,growth of Streptococcus mutans,[2],no growth
same,absorbance value after 14 hours of culture,[3]; 2.5 g/L in 10 g/L glucose,0.55
same,degree of inhibition of growth compared with 10 g/L of xylitol,[3]; 5 g/L in 10 g/L glucose,greater
same,effect on inhibiting the growth of Streptococcus mutans compared with xylitol,"[3]; same concentration, 10 g/L glucose",greater
same,final absorbance value compared with xylitol,"[3]; same concentration, after 14 hours of culture, 10 g/L glucose",lower
"OC[C@H]1OC(O)[C@H](O)[C@@H](O[C@@H]2O[C@H]3CO[C@@H]([C@@H]2O)[C@@H]3O)[C@H]1O (stereo partly shown) [neoagarobiose, reference compound]",inhibition of acid production of Streptococcus mutans,[1]; [8],unable to inhibit
same,amount of consumed glucose compared to 0 g/L,[1]; up to 20 g/L in 10 g/L glucose,did not exhibit significant differences
same,amount of produced lactic acid compared to 0 g/L,[1]; up to 20 g/L in 10 g/L glucose,did not exhibit significant differences
same,growth of Streptococcus mutans,[2],no growth
same,inhibition of the growth of Streptococcus mutans,[3]; [8],unable to inhibit
same,final absorbance value compared to 0 g/L,[3]; up to 20 g/L in 10 g/L glucose,did not exhibit significant differences
same,change in the growth of Streptococcus mutans,"[3]; up to 20 g/L, minimal medium containing 10 g/L glucose",no significant change
"OC[C@@H](O)[C@H](O)[C@@H](O)CO [xylitol, reference compound]",decrease of produced lactic acid compared to 0 g/L,"[1]; 5 g/L in 10 g/L glucose, 14 hours",30%
same,decrease of consumed glucose compared to 0 g/L,[1]; [6],23.98%
same,decrease of produced lactic acid compared to 0 g/L,[1]; [6],35%
same,decrease of consumed glucose compared to 0 g/L,[1]; [7],36.41%
same,decrease of produced lactic acid compared to 0 g/L,[1]; [7],35%
same,concentration needed to inhibit the growth of Streptococcus mutans,[4],≥ 10 g/L
same,growth of Streptococcus mutans,[2],no growth
same,absorbance value at 600 nm after culturing for 14 hours,[3]; 20 g/L in 10 g/L glucose,0.595
